Data from patent US20020055462A1, “Use” (priority 1999, published 2002).
“Also recorded” adds a separate entry of the source.

Key:
[1] = system: IL-6 plus IL-6sR stimulated aromatase activity; assay: IL-6 plus IL-6sR stimulated aromatase activity in breast fibroblasts; type: cell-based, human; settings: for inhibition of stimulation of aromatase activity by IL-6 plus its soluble receptor (in words): breast fibroblasts; for inhibition of IL-6 plus IL-6sR (50 ng+100 ng/ml) stimulated aromatase activity, significance: compound 10 μM, p<0.001
Method: (§1) The experimental protocol used was as described in the legend to FIG. 1.
(§2) Fibroblasts were cultured as previously described (2). Briefly, they were cultured in Eagles' modified minimal essential medium containing Hepes buffer (20 mmol/l), 10% foetal calf serum (FCS) and supplements. Cells were routinely passaged 2-3 times after which replicate 25 cm^2 flasks were seeded with fibroblasts and grown to confluency.
(§3) At the end of the treatment period aromatase activity was measured in intact monolayers using [1β-^3H] androstenedione (15-30 Ci/mmol, NEN-Du Pont, Stevenage, Herts, UK) over a 3-20 h period (2, 3). The number of cells was measured by counting cell nuclei using a Coulter counter. Experiments were carried out in triplicate and results shown are representative of 2-3 investigations.

[2] = system: TNFα stimulated aromatase activity; assay: TNFα-stimulated aromatase activity in cultured breast tissue fibroblasts; type: cell-based, human; settings: for inhibition of TNFα-stimulated aromatase activity (in words): stromal fibroblasts from normal or malignant breast tissue; for inhibition of TNFα (20 ng/ml) stimulated aromatase activity, significance: compound 10 μM, p<0.001; for inhibition of TNFα-stimulated aromatase activity: fibroblasts derived from reduction mammoplasty tissue, 24 h pre-treatment, then TNFα plus dexamethasone for 48 h
Method: (§4) Inhibition of basal and TNFα-stimulated aromatase activity by paclitaxel (Pax) in breast tissue fibroblasts. Paclitaxel was added to cells which were cultured for 24 h in 2% stripped foetal calf serum. TNFα was added, in the presence of dexamethasone (100 nmol/l) and cells cultured for a further 48 h in the same medium. Controls and cells with paclitaxel, but not TNFα, were also cultured in the presence of dexamethasone for a 48 h period. Aromatase activity was measured in intact monolayers after washing cells with phosphate buffered saline. (means±SD, n=3; a, p<0.001 versus controls; b, p<0.001 versus TNFα-stimulated aromatase activity).
(§5) Samples of breast adipose or tumour tissue were obtained from women undergoing reduction mammoplasty or lumpectomy after obtaining their informed consent.
as §2, §3

[3] = system: PGE2 stimulated aromatase activity; assay: PGE2 stimulated aromatase activity in breast fibroblasts; type: cell-based, human; settings: for inhibition of stimulation of aromatase activity by PGE2 (in words): breast fibroblasts; for inhibition of PGE2 (10 μM) stimulated aromatase activity, significance: compound 10 μM, p<0.001
Method: as §1, §2, §3

aromatase = assay: Basal aromatase activity in intact monolayers of cultured breast tissue fibroblasts; type: cell-based, human; settings: for inhibition of basal aromatase activity (in words): stromal fibroblasts from normal or malignant breast tissue; for inhibition of basal aromatase activity: fibroblasts derived from reduction mammoplasty tissue, 24 h pre-treatment then 48 h with dexamethasone 100 nmol/l
Method: as §4, §5, §2, §3

Meth A sarcoma = settings: oral administration, mice; cited from earlier work
[4] = system: MDA-MB-435 breast cancer cells; settings: oral administration, mice; cited from earlier work
B16 melanoma = settings: oral administration, mice; cited from earlier work
[5] = system: TNFα stimulated aromatase activity; settings: high concentrations, 10-100 μM; cited from earlier work
TNFα receptors = settings: human macrophages; cited from earlier work

In the case of `COc1cc2c(cc1OS(N)(=O)=O)CCC1C2CC[C@]2(C)C(=O)CCC12` (stereo partly drawn) [2-MeOEMATE, 2-methoxyoestrone-3-O-sulphamate], the “inhibition of stimulation of aromatase activity by IL-6 plus its soluble receptor (in words)” value [1] is reported as “antagonise; also recorded: inhibited”, the “inhibition of TNFα-stimulated aromatase activity (in words)” value [2] is reported as “inhibited; also recorded: reduced” and the “inhibition of stimulation of aromatase activity by PGE2 (in words)” value (from here on “inhibition of stimulation … by PGE2 (in words)”) [3] is reported as “antagonise; also recorded: inhibited”. The “inhibition of basal aromatase activity (in words)” value (aromatase) was “inhibited; also recorded: reduced”.

For `COc1cc2c(cc1O)CC[C@@H]1[C@@H]2CC[C@]2(C)[C@@H](O)CC[C@@H]12` [2-meOE2, 2-methoxyoestradiol], the tumour growth (Meth A sarcoma) is listed as “significantly reduced”, the tumour growth [4] is listed as “significantly reduced” and the “inhibition of IL-6 plus IL-6sR (50 ng+100 ng/ml) stimulated aromatase activity, significance” value [1] is listed as “significant”. For the same compound, the tumour growth (B16 melanoma) was “significantly reduced”, the “inhibition of TNFα (20 ng/ml) stimulated aromatase activity, significance” value [2] was “significant” and the “inhibition of TNFα stimulation of aromatase activity, dose-response study” value ([2]; compound at 0.1 μM) was 51%. For the same compound, the “inhibition of TNFα-stimulated aromatase activity” value [2] was 56%, the “inhibition of TNFα-stimulated aromatase activity (in words)” value [2] was “inhibited” and the “inhibition of TNFα-stimulated aromatase activity (in words)” value ([2]; listed as 2-methoxyoestradiol) was “significantly inhibited”. For the same compound, the “inhibition of stimulation … by PGE2 (in words)” value [3] was “antagonise; also recorded: inhibited”, the “inhibition of PGE2 (10 μM) stimulated aromatase activity, significance” value [3] was “significant” and the “inhibition of basal aromatase activity” value (aromatase) was 46%. The “inhibition of basal aromatase activity (in words)” value (aromatase) was “inhibited”.

For `COc1cc2c(cc1O)CC[C@@H]1[C@@H]2CC[C@]2(C)[C@@H](O)[C@H](O)C[C@@H]12` [2-meOE3, 2-methoxyoestriol], the “inhibition of TNFα stimulation of aromatase activity at 5 μM (in words)” value ([2]; compound at 5 μM) was “did not significantly reduce”, the “inhibition of TNFα stimulation of aromatase activity at highest concentration tested (in words)” value ([2]; highest concentration tested) was “some inhibitory effect” and the “inhibition of TNFα-stimulated aromatase activity (in words)” value [2] was “less effective”. The “inhibition of TNFα-stimulated aromatase activity (in words)” value ([2]; listed as 16α-hydroxy derivative of 2-meOE2) was “limited ability to suppress”.

For `COc1cc2c(c(OC)c1OC)-c1ccc(OC)c(=O)cc1[C@@H](NC(C)=O)CC2` [Colchicine], the “inhibition of TNFα-stimulated aromatase activity (in words)” value [2] was “without effect” and the “inhibition of TNFα-stimulated aromatase activity (in words)” value ([2]; listed as colchicine) was “unable to inhibit”.

With `C=C1[C@@H](C)[C@H]2[C@H](Cc3ccccc3)NC(=O)[C@]23OC(=O)/C=C/[C@H](O)CCC[C@@H](C)C/C=C/[C@H]3[C@@H]1O` [Cytocholasin B] the “inhibition of TNFα-stimulated aromatase activity (in words)” value [2] was “without effect” and the “inhibition of TNFα-stimulated aromatase activity (in words)” value ([2]; listed as cytocholasin B) was “unable to inhibit”.

In the case of `C[C@]12CC[C@@H]3c4ccc(O)cc4CC[C@H]3[C@@H]1CC[C@@H]2O` [oestradiol], the “inhibition of TNFα stimulated aromatase activity in adipose stromal cells” value [5] is listed as “can inhibit”.

In the case of `CC(=O)O[C@H]1C(=O)[C@@]2(C)[C@H]([C@H](OC(=O)c3ccccc3)[C@]3(O)C[C@H](OC(=O)[C@H](O)[C@@H](NC(=O)c4ccccc4)c4ccccc4)C(C)=C1C3(C)C)[C@]1(OC(C)=O)CO[C@@H]1C[C@@H]2O` [paclitaxel], the “effect on TNFα receptors” value (TNFα receptors) is listed as “rapidly down-regulate”, the “inhibition of stimulation of aromatase activity by IL-6 plus its soluble receptor (in words)” value [1] is listed as “antagonise; also recorded: inhibited” and the “inhibition of IL-6 plus IL-6sR (50 ng+100 ng/ml) stimulated aromatase activity, significance” value [1] is listed as “significant”. The inhibition at 0.1 µM ([2]; Homo sapiens, Fibroblast, compound at 0.1 μM, read-out: inhibition of TNFα stimulation of aromatase activity, dose-response study) was 90%, the “inhibition of TNFα (20 ng/ml) stimulated aromatase activity, significance” value [2] was “significant” and the “inhibition of TNFα-stimulated aromatase activity” value [2] was 91%. The “inhibition of TNFα-stimulated aromatase activity (in words)” value [2] was “significantly inhibited”, the “inhibition of TNFα-stimulated aromatase activity (in words)” value ([2]; listed as Paclitaxel) was “inhibited” and the “inhibition of stimulation … by PGE2 (in words)” value [3] was “antagonise; also recorded: inhibited”. For the same compound, the “inhibition of PGE2 (10 μM) stimulated aromatase activity, significance” value [3] was “significant”, the “inhibition of basal aromatase activity” value (aromatase) was 88% and the “inhibition of basal aromatase activity (in words)” value (aromatase) was “inhibited”.

With TNFα the “stimulation of aromatase activity” value ([2]; in the presence of dexamethasone, reduction mammoplasty fibroblasts) was 375%.
